# In US20090312438A1, “Compositions and Methods for Attenuating the Formation of A2E in the Retinal Pigment Epithelium” (priority 2008, published 2009):
# Key:
# A2E formation in the RPE = assay: Xanthophyll supplementation in Japanese quail: A2E in RPE/choroid by HPLC-MS; assay type: in vivo, Japanese quail (Coturnix japonica); conditions: for Rise of A2E levels from baseline levels: 16-week supplementation, P=0.1, unsupplemented control rose more than six-fold; for A2E oxidation products in mass spectra versus control group: A2E extracted from RPE, FIG. 5; for A2E levels in the RPE, control group relative to supplemented groups: FIG. 4, 16 weeks, N=4, P<0.001; for Inhibition of A2E formation relative to birds fed a control diet low in carotenoids: high dose supplementation
# Procedure: A2E and its isomers were extracted and isolated from RPE/choroid using a previously described method (8). RPE samples were homogenized in 1:1 CHCl3/MeOH (2 ml) and 0.01 M phosphate-buffered saline (PBS) (1 ml). The homogenizer was washed with 1:1 CHCl3/MeOH (2 ml), 0.01 M PBS (1 ml), and then CHCl3 (2 ml) and CH2Cl2 (2 ml) were added to remove any remaining material. All solutions were combined, and the organic layer was extracted from the aqueous layer. The combined organic extracts were evaporated to dryness under vacuum at room temperature. The residue was dissolved in MeOH for HPLC. The vials were centrifuged at approximately 2000 g to remove the minor amounts of insoluble solid particles prior to analysis.
# HPLC analysis was performed on a Thermo Separations (San Jose, Calif.) HPLC system with binary gradient pumps, a refrigerated autosampler, a UV6000 photodiode-array detector (PDA), and an MSQ single quadrupole mass spectrometer. Peak identities were confirmed by PDA and mass spectra and by co-elution with authentic standards as necessary. Calibration was by external standardization curves with authentic standards. […] Typical reproducibility with external standardization in our laboratory is +5%.
# A2E HPLC analysis: The dried A2E samples were redissolved in 100 μl of MeOH. A gradient of 84-100% acetonitrile (A) with 0.05% trifluoroacetic acid in H2O (B) over 35 minutes was used to separate A2E at a flow rate of 1.0 ml min^−1 on a reverse-phase C18 column (4.6×250 mm, Phenomenex, Atlanta, Ga.). The column was maintained at room temperature, and the HPLC PDA detector was operated at 440 nm.
# MS analysis was performed using a Thermo Separations (San Jose, Calif.) MSQ single quadrupole mass spectrometer, equipped with an electron spray ionization (ESI) source and an atmospheric pressure chemical ionization (APCI) source. A2E and carotenoids were ionized in positive ion ESI and APCI modes, respectively. To avoid overloading of eluted solvent molecules in the mass spectrometer and to optimize ionization conditions, 50% of the eluate was directed to waste with the help of a diverter valve after the PDA detector. The delay time from PDA to MS was 0.13 minutes. […] Selected ion monitoring (SIM) was performed using dwell time of 200 ms for each channel. In SIM mode, the m/z channels 592±3, 608±1.5, 624±1.5, and 640±1.5 were used for A2E and its oxidative products. Typical detection conditions for A2E were: RF lens bias voltage 0.1V, cone voltage 80V and heater temperature 550° C. The ion source and tuning lens parameters were optimized automatically by infusing A2E samples via the injector. For carotenoids, the m/z channels 551±0.7 and 569±0.7 were used for lutein, and 569±0.8 for zeaxanthin. Typical detection conditions were: corona discharge current 5 μA, cone voltage 80V, and probe temperature 500° C.
# Adult Japanese quail (Coturnix japonica) were procured from B&D farms (Harrah, Okla.), and all experiments were reviewed and approved by the University of Utah's Institutional Animal Care and Use Committee. The birds were kept under ambient room light on a 12-hour light-dark cycle, and they were divided into three groups of four birds: lutein supplemented, zeaxanthin supplemented, and unsupplemented. All birds were fed daily with a standard turkey diet (˜20 g/day) (Purina Mills, St. Louis, Mo.) that was low in carotenoids (1.10 ng/g). The supplemented birds were gavaged daily with 0.5 ml of a microbial extract rich in lutein or zeaxanthin for 16 weeks (0.2 mg of carotenoid per bird per day). Lutein was prepared from the freshwater alga Chlorella protothecoides CS 41 (Microalgae Supply Service, CSIRO, Hobart Australia) under conditions described earlier (36). Zeaxanthin was obtained from the non-pathogenic bacteria Flavobacterium multivorum ATCC 55238 grown on liquid growth medium as detailed earlier (37). […]
# [1] = extensive use in humans as dietary supplements; cited from earlier work
# [2] = female, Japanese quail (Coturnix japonica), in vivo, 16 weeks
# Procedure: Tissues were homogenized and extracted three times with tetrahydrofuran containing 0.1% butylated hydroxytoluene by sonication at 5° C. to 10° C. for 30 minutes each time. The combined organic extracts were evaporated to dryness under vacuum at room temperature. The dried residue was redissolved in one ml of HPLC mobile phase and centrifuged at approximately 2000 g for 10 minutes to remove the minor amounts of insoluble solid particles prior to analysis. The majority of carotenoids in bird retinas are esterified (32), so after the initial extraction, the dried carotenoid residue was redissolved in hexane and subjected to saponification in 1.8% (w/v) methanolic potassium hydroxide (KOH) for two hours at room temperature. After saponification, the samples were washed with water until the samples achieved neutral pH. The vials were centrifuged at approximately 2000 g to remove the minor amounts of insoluble solid particles. The solution was evaporated to dryness on a rotary evaporator under reduced pressure at room temperature and reconstituted in the appropriate HPLC solvents.
# HPLC analysis was performed on a Thermo Separations (San Jose, Calif.) HPLC system with binary gradient pumps, a refrigerated autosampler, a UV6000 photodiode-array detector (PDA), and an MSQ single quadrupole mass spectrometer. […]
SMILES,Rise of A2E levels from baseline levels (A2E formation in the RPE),A2E oxidation products in mass spectra versus control group (A2E formation in the RPE),"A2E levels in the RPE, control group relative to supplemented groups (A2E formation in the RPE)",Inhibition of A2E formation relative to birds fed a control diet low in carotenoids (A2E formation in the RPE),Toxicity in humans as dietary supplements [1],Increase of total lutein and zeaxanthin levels (retina) relative to baseline [2] [fold],Rise of total retinal carotenoid levels relative to baseline [2] [fold]
"CC1=C(/C=C/C(C)=C/C=C/C(C)=C/C=C/C=C(C)/C=C/C=C(C)/C=C/C2=C(C)C[C@@H](O)CC2(C)C)C(C)(C)C[C@H](O)C1 [Zeaxanthin, (3R, 3′R)-zeaxanthin]",barely any rise from baseline levels,control group had higher levels of oxidation products in comparison,significantly higher for the control group,profound inhibition of A2E formation,no toxicity has ever been reported,,
"CC1=C[C@H](O)CC(C)(C)[C@H]1/C=C/C(C)=C/C=C/C(C)=C/C=C/C=C(C)/C=C/C=C(C)/C=C/C1=C(C)C[C@@H](O)CC1(C)C [Lutein, (3R, 3′R, 6′R)-lutein]",barely any rise from baseline levels,control group had higher levels of oxidation products in comparison,significantly higher for the control group,profound inhibition of A2E formation,no toxicity has ever been reported,2.8,1.6
